Measured values reported in PubChem BioAssay AID1996.
Values after ≈ are worked out from the molar mass of the structure shown.

Conditions: buffer; pH 7.4; 200.0 µM

Row | solubility kinetic | Structure (SMILES)
1 | 6.9 µg/mL (≈ 21.2 µM) | CCOC(=O)Cc1csc(NC(=O)c2cccc(Cl)c2)n1
2 | 50.1 µg/mL (≈ 137 µM) | O=C(Nc1ccc(CN2CCOCC2)cc1)c1cc(Cl)ccc1Cl
3 | 15.7 µg/mL (≈ 47.1 µM) | O=C(CS(=O)(=O)Cc1ccccc1)Nc1ccc2c(c1)OCO2
4 | 1.7 µg/mL (≈ 6.58 µM) | CCCCn1c(=O)[nH]c2c(oc3ccccc32)c1=O
5 | 40.5 µg/mL (≈ 143 µM) | CN1CCN(C(=O)C2CCC(C)(C(=O)O)C2(C)C)CC1 (stereo not drawn)
6 | > 49.1 µg/mL | CCS(=O)(=O)N1CCC(C(=O)Oc2ccccc2OC)CC1
7 | > 34.4 µg/mL | N#CCNC1CC(=O)N(c2ccccc2)C1=O (stereo not drawn)
8 | < 0.6 µg/mL | Cc1cccc(-c2nc3sc(C)cc3c(=O)o2)c1
9 | 20.4 µg/mL (≈ 63.1 µM) | Cc1ccc(NC(=S)NCCc2c[nH]c3ccccc23)c(C)c1
10 | > 48.2 µg/mL | COC(=O)CNC(=O)c1cc(-c2ccncc2)nc2ccccc12
11 | 43 µg/mL (≈ 119 µM) | COc1ccc(NC(=O)NC2(C(=O)N3CCOCC3)CCCCC2)cc1
12 | > 41 µg/mL | O=C(O)c1cc([N+](=O)[O-])ccc1NCc1cccnc1
13 | 0.4 µg/mL (≈ 1.5 µM) | Cc1cccc(-c2nc(C#N)c(N3CCCCC3)o2)c1
14 | > 42.9 µg/mL | Cc1ccc(CONC(=O)c2cccc([N+](=O)[O-])c2)cc1
15 | 44.1 µg/mL (≈ 141 µM) | O=C(CCCC(=O)c1ccccc1)NCCc1ccccc1F
16 | 1 µg/mL (≈ 3.07 µM) | Cc1cc(Sc2nc(N(C)C)nc(N(C)C)n2)nc(Cl)n1
17 | 36.8 µg/mL (≈ 122 µM) | COc1cccc(C(=O)Nc2ccc3c(c2)OCO3)c1OC
18 | > 54.7 µg/mL | CCc1ccc(N2C(=O)CC(N3CCN(c4ccccn4)CC3)C2=O)cc1 (stereo not drawn)
19 | > 52.2 µg/mL | CCN(CC)CCOC(=O)C(c1ccccc1)c1ccccc1.Cl
20 | 1.3 µg/mL (≈ 4.7 µM) | Cc1ccc(SCCC(=O)Nc2cc(C)on2)cc1
21 | 2.8 µg/mL (≈ 10.3 µM) | Nc1ncnc(SCc2c(F)cccc2Cl)n1
22 | 2.6 µg/mL (≈ 9.18 µM) | CC(C)Oc1ccc(C2NC(=O)c3ccccc3O2)cc1 (stereo not drawn)
23 | > 48.1 µg/mL | O=C1CCc2ccc(NS(=O)(=O)c3ccc(F)cc3)cc2N1

Row | solubility kinetic | Structure (SMILES)
24 | < 0.7 µg/mL | COc1ccc(C(=O)c2ccc(-c3ccc(OC)cc3)nc2)cc1
25 | 22.3 µg/mL (≈ 98.1 µM) | CN(C)c1ccc(CNc2ccccn2)cc1
26 | 8.2 µg/mL (≈ 25.1 µM) | COc1ccc(Cn2c(C(F)(F)F)ccc(C(N)=O)c2=O)cc1
27 | < 0.2 µg/mL | CCc1ccc2oc(C(=O)Nc3nonc3CC)c(C)c2c1
28 | > 26.7 µg/mL | N#C/C(=C/c1ccco1)C(N)=S
29 | > 46.7 µg/mL | Cc1ccc(C(=O)NCCCNC(=O)c2ccc(C)nc2)cc1
30 | 34.2 µg/mL (≈ 139 µM) | Cc1ccc(C(C)NC(=O)C2CCCC2)c(C)c1 (stereo not drawn)
31 | > 41.9 µg/mL | CCc1ccc2[nH]c(=O)c(Cc3ccccc3)c(O)c2c1
32 | > 42 µg/mL | COc1nc(N(C)C)nc(N(C#N)CCOC(C)=O)n1
33 | > 48.3 µg/mL | O=P(C(=NCCO)NO)(N1CCOCC1)N1CCOCC1
34 | 12.4 µg/mL (≈ 44.4 µM) | Cc1ccc2ccc(C)[n+](CCCS(=O)(=O)[O-])c2c1
35 | > 46.3 µg/mL | CCN(Cc1cccc(F)c1)C(=O)c1ccc2ccccc2n1
36 | 2.3 µg/mL (≈ 7.03 µM) | CCCCn1c(=O)[nH]c2nc3cc(NC(C)=O)ccc3nc2c1=O
37 | 36.1 µg/mL (≈ 138 µM) | CC1CN(CC(=O)NCc2ccccc2)CC(C)O1 (stereo not drawn)
38 | > 50.9 µg/mL | CC1CN(S(=O)(=O)c2ccccc2)CN1C(=O)N1CCOCC1 (stereo not drawn)
39 | 19.7 µg/mL (≈ 57.7 µM) | Cc1cc(C)nc(SC2CC(=O)N(c3ccc(C)c(C)c3)C2=O)n1 (stereo not drawn)
40 | 28 µg/mL (≈ 76.2 µM) | CN1CCN(C(=S)c2cn(Cc3cccc(F)c3)c3ccccc23)CC1
41 | > 63.8 µg/mL | CCN(CC)S(=O)(=O)c1cc(NC(=O)CSCc2c(C)noc2C)ccc1C
42 | 5.4 µg/mL (≈ 15.2 µM) | COc1cccc(OC)c1C(=O)NC(=O)Nc1c(F)cc(F)cc1F
43 | 28.6 µg/mL (≈ 141 µM) | Cc1cc(=S)nc(-c2ccccn2)[nH]1
44 | 36.4 µg/mL (≈ 148 µM) | O=C(CNC(=O)c1ccco1)Nc1ccncc1
45 | 4.4 µg/mL (≈ 13 µM) | Cc1ccc(C(=O)NC2CCN(C(=O)Nc3ccccc3)CC2)cc1
46 | 0.9 µg/mL (≈ 2.41 µM) | COc1ccc([N+](=O)[O-])c(OC)c1C(=O)NC(=O)Nc1c(C)cccc1C

Row | solubility kinetic | Structure (SMILES)
47 | 51.8 µg/mL (≈ 132 µM) | COc1ccccc1NCCC(=O)OCC(=O)Nc1cc([N+](=O)[O-])ccc1F
48 | 49 µg/mL | COc1cc(CNCC2CCCO2)ccc1OCC(N)=O.Cl (stereo not drawn)
49 | > 41 µg/mL | O=C(O)c1ccc(NCc2cccnc2)c([N+](=O)[O-])c1
50 | 46.6 µg/mL (≈ 135 µM) | O=C(CN1CCC(NC(=O)C2CC2)CC1)Nc1ccccc1[N+](=O)[O-]
51 | 16.3 µg/mL (≈ 48 µM) | N/C(CC(=O)Nc1ccc(F)cc1F)=N\OC(=O)c1cccs1
52 | > 38.3 µg/mL | CN1CCN(C(=O)/C=C/c2ccc(C#N)cc2)CC1
53 | > 42.9 µg/mL | O=C(O)Cn1cnc2scc(-c3ccccc3)c2c1=O
54 | 36.3 µg/mL (≈ 117 µM) | Cc1ccc(C)c(NS(=O)(=O)c2csc(C(N)=O)c2)c1
55 | > 49.1 µg/mL | CCCNC(=O)CN1C(=O)c2ccccc2Sc2ncccc21
56 | 14.2 µg/mL (≈ 46.2 µM) | COc1ccc(C2CC(=O)C=C(NCc3ccccc3)C2)cc1 (stereo not drawn)
57 | 3.5 µg/mL (≈ 8.63 µM) | O=C(COc1ccccc1[N+](=O)[O-])Nc1cccc(S(=O)(=O)N2CCCC2)c1
58 | > 56.5 µg/mL | O=C(CC1S/C(=N/N=C2CCCCCC2)NC1=O)Nc1ccccc1F (stereo not drawn)
59 | > 50.8 µg/mL | Cc1[nH]n(-c2ccccc2)c(=O)c1/C=N/NC(=O)c1cccc(F)c1
60 | 38.9 µg/mL (≈ 124 µM) | COc1cc(C)nc(NS(=O)(=O)c2ccccc2Cl)n1
61 | 6 µg/mL (≈ 12.6 µM) | COc1ccc(S(=O)(=O)N2CCOCC2)cc1NC(=O)COc1ccc2ccc(=O)oc2c1
62 | 17.3 µg/mL (≈ 44.2 µM) | CN(CC(=O)Nc1cccc(F)c1)CC(=O)Nc1ccccc1-c1ccccc1
63 | > 51.4 µg/mL | O=C(N[C@@H](Cc1c[nH]c2ccccc12)C(=O)O)c1ccc(Cl)cc1
64 | > 47.8 µg/mL | Cc1ccc(OCC(=O)NC2CC(C)(C)NC(C)(C)C2)c(C)c1
65 | 7.9 µg/mL (≈ 26 µM) | CCc1ccc(NC(=O)COC(=O)CCC2CCCC2)cc1
66 | 1.1 µg/mL (≈ 3.52 µM) | Cc1ccc(C)c(N2CCN(c3ncccc3[N+](=O)[O-])CC2)c1
67 | 31.4 µg/mL (≈ 107 µM) | CN1CCN(C(=O)c2cc([N+](=O)[O-])cc([N+](=O)[O-])c2)CC1
68 | 34.2 µg/mL (≈ 89.4 µM) | COc1ccc(NC(=O)c2cccc(NS(=O)(=O)c3ccccc3)c2)cc1
69 | 2.2 µg/mL (≈ 7.3 µM) | CC(C)(C)NC(=O)COc1ccc2oc3c(c2c1)CCCC3

Row | solubility kinetic | Structure (SMILES)
70 | 4.9 µg/mL (≈ 17.9 µM) | CC(C)CC(C)NC(=O)c1ccc(C(F)(F)F)cc1 (stereo not drawn)
71 | 3.1 µg/mL (≈ 10.9 µM) | Cc1ccc(S(=O)(=O)NC2CCSC2=O)cc1C (stereo not drawn)
72 | > 46.7 µg/mL | C=CCN1CCN(C(=O)c2c(-c3ccccc3)noc2C)CC1
73 | 77.9 µg/mL (≈ 149 µM) | COc1ccc(Cl)cc1NC(=O)CN(C)CC(=O)N(CC(C)C)c1c(N)n(CC(C)C)c(=O)[nH]c1=O
74 | 31.7 µg/mL (≈ 116 µM) | Cc1ccc(C(=O)NCCNC(=O)c2ccco2)cn1
75 | 11.6 µg/mL (≈ 37.7 µM) | Cc1nc(SCC(=O)NC2CC2)c2c(C)c(C)sc2n1
76 | 3 µg/mL (≈ 8.1 µM) | COc1ccc(COC(=O)C2=C(C)NC(=O)NC2c2ccc(F)cc2)cc1 (stereo not drawn)
77 | < 0.4 µg/mL | C=CCN1C(=O)/C(=C2/Sc3ccccc3N2CC)SC1=S
78 | 1.2 µg/mL (≈ 3.77 µM) | Fc1ccc2[nH]c3c(N4CCc5ccccc5C4)ncnc3c2c1
79 | > 50.3 µg/mL | COc1ccc(Br)cc1CN(C)C(=O)c1ccncc1
80 | > 50.4 µg/mL | Cc1cccc(C)c1OCC(O)CNC(C)c1ccccc1.Cl (stereo not drawn)
81 | 8.9 µg/mL (≈ 31.4 µM) | CC1(C)C2CCC1(C)C(NC(=O)/C=C/c1ccccc1)C2 (stereo not drawn)
82 | 38.3 µg/mL (≈ 124 µM) | O=C1CSC(c2ccc(F)c(F)c2)N1c1ccccc1F (stereo not drawn)
83 | > 51.4 µg/mL | CCOc1ccccc1C(=O)N(C)CC(=O)Nc1ccc(OC)cc1
84 | 2.7 µg/mL (≈ 8.78 µM) | O=C(NC(=S)Nc1cccc2ncccc12)c1ccccc1
85 | < 0.4 µg/mL | CCc1cc2cccc(C)c2nc1SCC(=O)NC1CCCC1
86 | 8.7 µg/mL (≈ 31.3 µM) | CC(=O)Nc1ccc(/C=C/c2nc3ccccc3o2)cc1
87 | > 49.1 µg/mL | Cc1ccc(C(CNC(=O)c2ccco2)N2CCN(C)CC2)cc1 (stereo not drawn)
88 | 31.1 µg/mL (≈ 147 µM) | CCOC(=O)Cc1c(C)nc(N)[nH]c1=O
89 | 2.7 µg/mL (≈ 7.97 µM) | CCN(C(=O)COC(=O)c1ccc(Cl)cc1N)C1CCCCC1
90 | 7.8 µg/mL (≈ 19.7 µM) | O=C(OCC(=O)c1ccc[nH]1)c1ccc(F)c(S(=O)(=O)N2CCOCC2)c1
91 | > 24.3 µg/mL | O=c1[nH]c2ccccc2[nH]c1=O
92 | > 50.9 µg/mL | O=C(Nc1ccc(Oc2ccsc2C(=O)O)cc1)c1ccccc1

Row | solubility kinetic | Structure (SMILES)
93 | 0.8 µg/mL (≈ 2.65 µM) | O=C(NC(=S)NCCc1ccccc1)c1ccccc1F
94 | 28.6 µg/mL (≈ 114 µM) | N#Cc1ccsc1NC(=O)CN1CCOCC1
95 | > 42.8 µg/mL | N/C(=N\OC(=O)c1ccc2c(c1)OCO2)c1ccncc1
96 | > 49.1 µg/mL | O=C(COC(=O)c1cncc(Br)c1)NC1CCCC1
97 | 19.5 µg/mL (≈ 66.5 µM) | CCCCCCN=C1CC(C)(C)CC(=O)/C1=C(/O)CCC
98 | 45.1 µg/mL (≈ 139 µM) | O=C(Nc1sc(-c2ccccc2)cc1C(=O)O)c1ccccc1
99 | 23.3 µg/mL (≈ 78.6 µM) | Cc1ccc(N2C(=O)c3cccc([N+](=O)[O-])c3C2=O)cc1C
100 | > 36.1 µg/mL | CCCN(CC1CC1)C(=S)NC(=O)C1CC1
101 | 7.7 µg/mL (≈ 22.6 µM) | Cc1cc(NC(=O)CSc2nc3ccccc3n2CCC#N)no1
102 | > 31.5 µg/mL | CN(C)C(=O)c1cc([N+](=O)[O-])ccc1O
103 | 4.1 µg/mL (≈ 11.3 µM) | CC(=O)C1=C(Nc2ccccc2)CC(C)(O)C(C(C)=O)C1c1ccccc1 (stereo not drawn)
104 | > 51.7 µg/mL | COc1cc(OC)c(C(=O)O/N=C(\N)c2cccc(C)c2)cc1OC
105 | > 45.4 µg/mL | O=C(c1ccc(Cl)cc1)N1CCN(c2ncccn2)CC1
106 | > 33.2 µg/mL | CSc1nsc(SC)c1C(=O)O
107 | > 49 µg/mL | Cc1ccc(-n2c(C)cc(C(=O)CN3CCOCC3)c2C)cc1C
108 | < 0.3 µg/mL | O=C(NCCc1ccc(Cl)cc1)Nc1ccc(Cl)cc1
109 | 0.9 µg/mL (≈ 3.39 µM) | O=C(NC1CCCCCCC1)c1cccc(Cl)c1
110 | > 50 µg/mL | O=C(CN1C(=O)c2ccccc2S1(=O)=O)c1ccc(O)c(O)c1
111 | > 44.3 µg/mL | CC1CC1C(=O)OCC(=O)c1c(N)n(C)c(=O)n(C)c1=O (stereo not drawn)
112 | 4.4 µg/mL (≈ 11.8 µM) | COc1cc(OC)cc(C(=O)OCC(=O)Nc2ccc3[nH]c(=O)[nH]c3c2)c1

Row | Structure (SMILES) | solubility kinetic
113 | COc1ccc(N2CC2c2ccncc2)cc1 (stereo not drawn) | > 33.9 µg/mL
114 | O=C(NCCNC(=O)c1ccccc1F)c1ccco1.O=C(O)C(=O)O | 51.5 µg/mL
115 | CN1CCCN(C(=O)COc2ccc(F)cc2F)CC1 | > 42.6 µg/mL
116 | CCS(=O)(=O)N1CCC(N2CCC(C)CC2)CC1.O=C(O)C(=O)O | 53.3 µg/mL
117 | O=C1/C(=C/c2cccnc2)N2CCC1CC2 | > 32.1 µg/mL
118 | O=[N+]([O-])c1ccccc1CN1CC=C(c2ccc(F)cc2)CC1 | 2.3 µg/mL (≈ 7.36 µM)
